Laboratory results taken from ChEMBL document CHEMBL1201862, “PubChem BioAssay data set” (2004).
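These data come from cells grown in 96-well plates and exposed to compound for 48 hours at five concentrations. At the GI50, growth is halved.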 Calls of active or inactive are those of the source. Rule as the data show it: active = GI50 up to about 1.1 µM and inactive = higher. Non-standard residues stand in square brackets, D forms with d. Residues, ends and D or L forms follow the SMILES beside them. ΔPro = O=C(O)[CH]1C=CCN1

How the values were obtained:
Assay in all cases: NCI-60 cell line screen, 48 h
RPMI-8226 = system: RPMI-8226
MDA-MB-435 = system: MDA-MB-435
UACC-62 = system: UACC-62
HCT-15 = system: HCT-15
NCI-H460 = system: NCI-H460
SN12C = system: SN12C
NCI-H522 = system: NCI-H522
Malme-3M = system: Malme-3M
CAKI-1 = system: CAKI-1
LOX IMVI = system: LOX IMVI
EKVX = system: EKVX
CCRF-CEM = system: CCRF-CEM
HCC 2998 = system: HCC 2998
786-0 = system: 786-0
MCF7 = system: MCF7
RXF 393 = system: RXF 393
ACHN = system: ACHN
SK-MEL-28 = system: SK-MEL-28
A549 = system: A549
SF-295 = system: SF-295
OVCAR-4 = system: OVCAR-4
A498 = system: A498
SK-MEL-5 = system: SK-MEL-5
SNB-19 = system: SNB-19
Hs-578T = system: Hs-578T
HCT-116 = system: HCT-116
UACC-257 = system: UACC-257
SR = system: SR
MDA-N = system: MDA-N
PC-3 = system: PC-3
SF-268 = system: SF-268
HOP-92 = system: HOP-92
U-251 = system: U-251
NCI/ADR-RES = system: NCI/ADR-RES
IGROV-1 = system: IGROV-1
HL-60 = system: HL-60
OVCAR-5 = system: OVCAR-5
SF-539 = system: SF-539
SK-MEL-2 = system: SK-MEL-2
DU-145 = system: DU-145
T47D = system: T47D
MDA-MB-231 = system: MDA-MB-231
NCI-H226 = system: NCI-H226
HOP-62 = system: HOP-62
OVCAR-3 = system: OVCAR-3
SNB-75 = system: SNB-75
COLO 205 = system: COLO 205
SK-OV-3 = system: SK-OV-3
UO-31 = system: UO-31
TK-10 = system: TK-10
SW-620 = system: SW-620
OVCAR-8 = system: OVCAR-8
KM12 = system: KM12
BT-549 = system: BT-549
MOLT-4 = system: MOLT-4
NCI-H23 = system: NCI-H23
K562 = system: K562
HT-29 = system: HT-29
M14 = system: M14

In the case of `O=C(O)C1C=CCN1C(=O)C1C=CCN1C(=O)C1C=CCN1` (stereo not drawn) (H-[ΔPro]-[ΔPro]-[ΔPro]-OH; configuration not given here), the GI50 (RPMI-8226) is reported as > 100 µM (inactive), the GI50 (MDA-MB-435) is reported as > 100 µM (inactive) and the GI50 (UACC-62) is reported as > 100 µM (inactive). The GI50 (HCT-15) was greater than 100 µM, the GI50 (NCI-H460) was > 100 µM (inactive) and the GI50 (SN12C) was > 100 µM (inactive). The GI50 (NCI-H522) was > 100 µM (inactive), the GI50 (Malme-3M) was > 100 µM (inactive) and the GI50 (CAKI-1) was > 100 µM (inactive). The GI50 (LOX IMVI) was > 100 µM (inactive), the GI50 (EKVX) was > 100 µM (inactive) and the GI50 (CCRF-CEM) was > 100 µM (inactive). For the same molecule, the GI50 (HCC 2998) was > 100 µM (inactive), the GI50 (786-0) was > 100 µM (inactive) and the GI50 (MCF7) was > 100 µM (inactive). For the same molecule, the GI50 (RXF 393) was 4.21 µM (inactive), the GI50 (ACHN) was > 100 µM (inactive) and the GI50 (SK-MEL-28) was > 100 µM (inactive). For the same molecule, the GI50 (A549) was > 100 µM (inactive), the GI50 (SF-295) was > 100 µM (inactive) and the GI50 (OVCAR-4) was > 100 µM (inactive). The GI50 (A498) was > 100 µM (inactive), the GI50 (SK-MEL-5) was > 100 µM (inactive) and the GI50 (SNB-19) was > 100 µM (inactive). For the same molecule, the GI50 (Hs-578T) was > 100 µM (inactive), the GI50 (HCT-116) was > 100 µM (inactive) and the GI50 (UACC-257) was > 100 µM (inactive). The GI50 (SR) was > 100 µM (inactive), the GI50 (MDA-N) was > 100 µM (inactive) and the GI50 (PC-3) was > 100 µM (inactive). For the same molecule, the GI50 (SF-268) was > 100 µM (inactive), the GI50 (HOP-92) was > 100 µM (inactive) and the GI50 (U-251) was > 100 µM (inactive). The GI50 (NCI/ADR-RES) was > 100 µM (inactive), the GI50 (IGROV-1) was > 100 µM (inactive) and the GI50 (HL-60) was > 100 µM (inactive). For the same molecule, the GI50 (OVCAR-5) was > 100 µM (inactive), the GI50 (SF-539) was > 100 µM (inactive) and the GI50 (SK-MEL-2) was > 100 µM (inactive). For the same molecule, the GI50 (DU-145) was > 100 µM (inactive), the GI50 (T47D) was > 100 µM (inactive) and the GI50 (MDA-MB-231) was > 100 µM (inactive). The GI50 (NCI-H226) was 33.5 µM (inactive), the GI50 (HOP-62) was > 100 µM (inactive) and the GI50 (OVCAR-3) was > 100 µM (inactive). For the same molecule, the GI50 (SNB-75) was > 100 µM (inactive), the GI50 (COLO 205) was > 100 µM (inactive) and the GI50 (SK-OV-3) was > 100 µM (inactive). The GI50 (UO-31) was > 100 µM (inactive), the GI50 (TK-10) was 30.1 µM (inactive) and the GI50 (SW-620) was > 100 µM (inactive). For the same molecule, the GI50 (OVCAR-8) was > 100 µM (inactive), the GI50 (KM12) was > 100 µM (inactive) and the GI50 (BT-549) was > 100 µM (inactive). The GI50 (MOLT-4) was > 100 µM (inactive), the GI50 (NCI-H23) was > 100 µM (inactive) and the GI50 (K562) was > 100 µM (inactive). For the same molecule, the GI50 (HT-29) was > 100 µM (inactive) and the GI50 (M14) was > 100 µM (inactive).

With `N#Cc1c(O)c(/N=N/c2ccc(Cl)cc2)c(=O)n2c1[nH]c1ccccc12` the GI50 (RPMI-8226) was 21.5 µM (inactive), the GI50 (MDA-MB-435) was 35.8 µM (inactive) and the GI50 (UACC-62) was 29.7 µM (inactive). For the same molecule, the GI50 (HCT-15) was 28.1 µM, the GI50 (NCI-H460) was 45.6 µM (inactive) and the GI50 (SN12C) was 46.5 µM (inactive). The GI50 (NCI-H522) was 33.3 µM (inactive), the GI50 (Malme-3M) was 40.6 µM (inactive) and the GI50 (CAKI-1) was 78.3 µM (inactive). The GI50 (LOX IMVI) was > 100 µM (inactive), the GI50 (EKVX) was > 100 µM (inactive) and the GI50 (CCRF-CEM) was 31.2 µM (inactive). The GI50 (HCC 2998) was 41.5 µM (inactive), the GI50 (786-0) was 48.6 µM (inactive) and the GI50 (MCF7) was 43.5 µM (inactive). The GI50 (RXF 393) was 53.8 µM (inactive), the GI50 (ACHN) was 36.1 µM (inactive) and the GI50 (SK-MEL-28) was 45.2 µM (inactive). The GI50 (A549) was 44.9 µM (inactive), the GI50 (SF-295) was 36.9 µM (inactive) and the GI50 (OVCAR-4) was 67 µM (inactive). For the same molecule, the GI50 (A498) was 37.6 µM (inactive), the GI50 (SK-MEL-5) was 53.7 µM (inactive) and the GI50 (SNB-19) was 47.3 µM (inactive). For the same molecule, the GI50 (Hs-578T) was 52.1 µM (inactive), the GI50 (HCT-116) was 37.9 µM (inactive) and the GI50 (UACC-257) was 52.1 µM (inactive). For the same molecule, the GI50 (SR) was 29.9 µM (inactive), the GI50 (MDA-N) was 38.7 µM (inactive) and the GI50 (PC-3) was 36.2 µM (inactive). The GI50 (SF-268) was 45 µM (inactive), the GI50 (HOP-92) was 26.1 µM (inactive) and the GI50 (U-251) was 37.5 µM (inactive). For the same molecule, the GI50 (NCI/ADR-RES) was 44 µM (inactive), the GI50 (IGROV-1) was 73.1 µM (inactive) and the GI50 (HL-60) was 55.5 µM (inactive). The GI50 (OVCAR-5) was 62.2 µM (inactive), the GI50 (SF-539) was 53.8 µM (inactive) and the GI50 (SK-MEL-2) was 45.8 µM (inactive). For the same molecule, the GI50 (DU-145) was 38.5 µM (inactive), the GI50 (T47D) was 27.1 µM (inactive) and the GI50 (MDA-MB-231) was 29.3 µM (inactive). For the same molecule, the GI50 (NCI-H226) was 81.8 µM (inactive), the GI50 (HOP-62) was 17.5 µM (inactive) and the GI50 (OVCAR-3) was 26.4 µM (inactive). The GI50 (SNB-75) was 37.7 µM (inactive), the GI50 (COLO 205) was 52.2 µM (inactive) and the GI50 (SK-OV-3) was 94 µM (inactive). The GI50 (UO-31) was 49.9 µM (inactive), the GI50 (TK-10) was 54 µM (inactive) and the GI50 (SW-620) was 63.2 µM (inactive). The GI50 (OVCAR-8) was 37.8 µM (inactive), the GI50 (KM12) was 47 µM (inactive) and the GI50 (BT-549) was 34.6 µM (inactive). The GI50 (MOLT-4) was 29.6 µM (inactive), the GI50 (NCI-H23) was 46 µM (inactive) and the GI50 (K562) was 32.6 µM (inactive). The GI50 (HT-29) was 35.8 µM (inactive) and the GI50 (M14) was 36 µM (inactive).
